Data set [1] has as its system Klebsiella pneumoniae. Description: Antibacterial activity against Klebsiella pneumoniae ATCC 27736 incubated for 16 to 18 hrs by broth dilution assay. The class given is functional. Particulars: time 16-18 hrs. In general terms: Dilution methods test growth across graded concentrations, often in twofold steps.
The test system of data set [2] is Staphylococcus aureus. Briefly: Antibacterial activity against Staphylococcus aureus ATCC 25923 incubated for 16 to 18 hrs by broth dilution assay. The class given is functional. Conditions: time 16-18 hrs.
In data set [3] the test system is Pseudomonas aeruginosa. Description: Antibacterial activity against Pseudomonas aeruginosa ATCC BAA-427 incubated for 16 to 18 hrs by broth dilution assay. The format is functional. Particulars: time 16-18 hrs.
Data set [4] has as its system Bacillus subtilis. Description: Antibacterial activity against Bacillus subtilis 6633 incubated for 16 to 18 hrs by broth dilution assay. The class given is functional. Conditions: time 16-18 hrs.
Data set [5] has as its system Staphylococcus aureus. Description: Antibacterial activity against methicillin-resistant Staphylococcus aureus BAA-44 incubated for 16 to 18 hrs by broth dilution assay. The format is functional. Conditions: time 16-18 hrs.
Data set [6] has as its system Escherichia coli. Description: Antibacterial activity against Escherichia coli ATCC 25922 incubated for 16 to 18 hrs by broth dilution assay. The format is functional. Conditions: time 16-18 hrs.
The test system of data set [7] is Staphylococcus aureus. Briefly: Antibacterial activity against methicillin-resistant Staphylococcus aureus 33591 incubated for 16 to 18 hrs by broth dilution assay. The class given is functional. Conditions: time 16-18 hrs.
Data set [8] can be described thus: Retention time of compound by RP-HPLC method. The class given is physicochemical.
A short description of data set [9]: Hemolytic activity in human RBC measured after 40 mins by absorbance based assay. Conditions: human red blood cells. The class given is toxicity, cell-based, Erythrocyte.
Data set [10] is described as follows: Hemolytic activity in human RBC at 100 uM measured after 40 mins by absorbance based assay relative to control. The format is toxicity, cell-based, Erythrocyte. Particulars: human red blood cells, read-out: Activity.

≈ marks a conversion by molar mass, not a printed value. Bounds are passed on as bounds.

As for `CC1(C)S[C@@H]2[C@H](NC(=O)[C@H](N)c3ccccc3)C(=O)N2[C@H]1C(=O)O` [AMPICILLIN], the MIC (commonly the lowest concentration that inhibits growth of the organism) was determined as 100 µM (≈ 34.9 µg/mL) in data set [1]; 3.1 µM (≈ 1.08 µg/mL) in data set [2]; 25 µM (≈ 8.74 µg/mL) in data set [3]; 1.6 µM (≈ 0.559 µg/mL) in data set [4]; 25 µM (≈ 8.74 µg/mL) in data set [5]; 12.5 µM (≈ 4.37 µg/mL) in [6]. For the same molecule, 12.5 µM (≈ 4.37 µg/mL) was the least that counted as inhibitory in [7] (MIC).
Regarding H-GRLGRLGRLGRL-OH, the MIC in data set [1] is above 151 µM; in data set [2], 4.7 µM; in data set [3], 75.6 µM; in [4], 18.9 µM; in data set [5], 18.9 µM; in data set [6] it was 18.9 µM. Also, the lowest concentration to inhibit growth in data set [7] (MIC) was 18.9 µM. The molecule also came in with a Retention_time in [8] of 20.87 min. Further, the HC50 – broadly, the concentration giving 50% haemolysis – at 40 min in data set [9] worked out at 2 mM.
Regarding H-GRLVGRLVGRLV-OH, the MIC in [1] is 155 µM; in [2], above 155 µM; in data set [3], 155 µM; in [4], above 155 µM; in data set [5], above 155 µM; in data set [6], 155 µM. Also, in data set [7], the minimum inhibitory concentration (MIC) was above 155 µM. This molecule also gave a Retention_time in data set [8] of 13.4 min. For the same molecule, in data set [9], the HC50 at 40 min was 2 mM.
On to H-KVKVKVKVKV-OH, for which the MIC in [1] is 43.4 µM; in data set [2], 21.7 µM; in data set [3], 21.7 µM; in data set [4], 10.9 µM; in data set [5], 21.7 µM; in data set [6] it was 21.7 µM. In data set [7], this molecule displayed an MIC of 43.4 µM. The molecule also gave a Retention_time in data set [8] of 10.88 min. This molecule came in with a 50% haemolytic concentration (HC50) at 40 min in data set [9] of 0.283 mM. The hemolysis at 40 min, 100 µM in [10] is 18%.
As to H-KVKVKVKVKVKV-OH, the MIC worked out at 72.4 µM in [1]; 36.2 µM in data set [2]; 36.2 µM in [3]; 9.1 µM in data set [4]; 18.1 µM in data set [5]; 18.1 µM in [6]. Also, the minimal inhibitory concentration (MIC) in data set [7] came to 36.2 µM. Moreover, the Retention_time in data set [8] came to 10.81 min. For the same molecule, the 50% haemolytic concentration (HC50) at 40 min in data set [9] is 0.118 mM. Also, in data set [10], the hemolysis at 40 min, 100 µM came out at 42%.
With H-KVKVKVKVKVKVKV-OH, the MIC in [1] is 7.8 µM; in data set [2] it was 7.8 µM; in data set [3], 31.1 µM; in data set [4], 3.8 µM; in data set [5], 15.5 µM; in data set [6] it was 7.8 µM. Moreover, in data set [7], the lowest concentration to inhibit growth (MIC) was 15.5 µM. In [8], this molecule returned a Retention_time of 10.73 min. Besides, the HC50 at 40 min in data set [9] was determined as 0.062 mM. The hemolysis at 40 min, 100 µM in data set [10] was 80%.
Turning to H-KVLGKVLGKVLG-OH, the MIC in [1], in data set [2], in [3], in data set [4], in data set [5] and in data set [6] was above 165 µM throughout. In data set [7], this molecule returned an MIC above 165 µM. In data set [8], this molecule yielded a Retention_time of 15.26 min. The molecule further showed an HC50 at 40 min in [9] of 2 mM.
For H-KVLGRKVLGR-OH, the MIC is above 178 µM in data set [1]; 178 µM in data set [2]; above 178 µM in data set [3]; above 178 µM in data set [4]; above 178 µM in [5]; 178 µM in [6]. Further, the MIC in [7] was above 178 µM. The same molecule had a Retention_time in [8] of 10.61 min. The molecule further came in with an HC50 at 40 min in data set [9] of 2 mM.
Take H-KVLGRKVLGRKVLGR-OH: the MIC is above 119 µM in [1]; 29.8 µM in [2]; above 119 µM in [3]; above 119 µM in data set [4]; above 119 µM in data set [5]; 29.8 µM in data set [6]. The molecule further displayed an MIC in [7] above 119 µM. The Retention_time in data set [8] is 11.73 min. Moreover, the HC50 at 40 min in data set [9] was 2 mM.
Regarding H-KVLGRLKVLGRL-OH, the MIC in data set [1] is above 147 µM; in data set [2], above 147 µM; in [3], above 147 µM; in data set [4], above 147 µM; in [5], above 147 µM; in [6], 74 µM. In [7], this molecule displayed an MIC above 147 µM. The molecule also yielded a Retention_time in [8] of 16.81 min. Moreover, in data set [9], the 50% haemolytic concentration (HC50) at 40 min came out at 2 mM.
Regarding H-LGRLGRLGRLGR-OH, the MIC was above 151 µM in [1]; above 151 µM in data set [2]; above 151 µM in data set [3]; 151 µM in [4]; above 151 µM in [5]; 15.5 µM in data set [6]. In addition, the MIC in data set [7] was above 151 µM. In data set [8], this molecule came in with a Retention_time of 20.45 min. This molecule came in with an HC50 at 40 min in data set [9] of 2 mM.
For H-LGRLGRLGRLGRLGR-OH, the MIC is above 121 µM in data set [1]; 1.9 µM in data set [2]; 60.6 µM in [3]; 30.3 µM in [4]; 60.6 µM in data set [5]; 1.9 µM in data set [6]. This molecule yielded an MIC in data set [7] above 121 µM. Besides, the Retention_time in data set [8] is given as 16.23 min. In data set [9], this molecule displayed an HC50 at 40 min of 2 mM.
As for H-LGRLLGRLLGRLLGRL-OH, the minimal inhibitory concentration (MIC) was 1.8 µM in [1]; 1.8 µM in [2]; 3.5 µM in data set [3]; 1.8 µM in [4]; 1.8 µM in data set [5]; 1.8 µM in data set [6]. This molecule yielded an MIC in [7] of 1.8 µM. Moreover, the Retention_time in [8] was 20.87 min. The HC50 at 40 min in [9] stood at 0.051 mM. Besides, the hemolysis at 40 min, 100 µM in [10] is 95%.
In the case of H-LGRLVLGRLV-OH, the MIC was above 183 µM in data set [1]; 183 µM in data set [2]; above 183 µM in [3]; above 183 µM in data set [4]; above 183 µM in [5]; 91.4 µM in [6]. This molecule also registered an MIC in data set [7] above 183 µM. This molecule yielded a Retention_time in [8] of 16.21 min. In data set [9], the HC50 at 40 min came to 2 mM.
For H-LGRLVLGRLVLGRLV-OH, the MIC in data set [1] is above 122 µM; in data set [2], 15.3 µM; in data set [3], above 122 µM; in [4] it was above 122 µM; in data set [5], 61.2 µM; in data set [6] it was 7.6 µM. Further, the minimal inhibitory concentration (MIC) in data set [7] is above 122 µM. For the same molecule, in data set [8], the Retention_time is on record as 18.77 min. Besides, the concentration for 50% haemolysis (HC50) at 40 min in data set [9] is 2 mM.
On to H-VLGRLVLGRL-OH, for which the MIC is 183 µM in [1]; 183 µM in data set [2]; 183 µM in [3]; above 183 µM in [4]; above 183 µM in [5]; 183 µM in data set [6]. The molecule also displayed an MIC in data set [7] above 183 µM. Besides, the Retention_time in data set [8] stood at 16.21 min. Besides, the HC50 at 40 min in [9] turned out to be 2 mM.
Turning to H-VLGRLVLGRLVLGRL-OH, the MIC in data set [1] is above 122 µM; in [2], 7.6 µM; in data set [3], above 122 µM; in [4], above 122 µM; in data set [5] it was 61.2 µM; in data set [6], 7.6 µM. The molecule further yielded an MIC in data set [7] of 122 µM. Further, in [8], the Retention_time worked out at 19.07 min. In [9], this molecule yielded an HC50 at 40 min of 2 mM.
As for H-VLGRLVVLGRLV-OH, the MIC in [1] was above 155 µM; in data set [2] it was above 155 µM; in data set [3] it was above 155 µM; in [4], above 155 µM; in data set [5], above 155 µM; in data set [6], 77.4 µM. This molecule showed an MIC in data set [7] above 155 µM. This molecule also gave a Retention_time in data set [8] of 17.91 min. This molecule gave an HC50 at 40 min in [9] of 2 mM.
Consider H-VLGRVLGRVLGR-OH, for which the MIC in data set [1], in [2], in data set [3], in data set [4], in data set [5] and in data set [6] was above 155 µM in each case. In addition, the MIC in data set [7] is above 155 µM. This molecule also showed a Retention_time in data set [8] of 15.4 min. The molecule further gave a concentration for 50% haemolysis (HC50) at 40 min in data set [9] of 2 mM.

These data come from ChEMBL document CHEMBL6087460, “Generating a Peptide Library Using the Repeats of Amino Acid Scaffolds Created by Sliding the Framework of a 7-mer Human Chemerin Segment and Discovery of Potent Antibacterial and Antimycobacterial Peptides” (J Med Chem, 2025).
